Laboratory results: ChEMBL document CHEMBL2016510 (J Med Chem, 2012)

What was measured:
[1] = Antiarrhythmic activity in guinea pig left atria assessed as increase of 1 Hz-induced alternating current arrhythmia at 5 x 10^-5 M after 60 mins relative to control; format: functional; settings: Cavia porcellus, Cardiac atrium, 1 h
[2] = Negative inotropic activity in guinea pig left atria assessed as decrease of 1 Hz current-induced developed tension; format: functional, tissue-based; settings: Cavia porcellus, Cardiac atrium
Aorta = test: Vasorelaxant activity in potassium depolarized guinea pig aortic strip assessed as inhibition of calcium-induced contraction at 10^-4 M; format: functional, Cavia porcellus; parameters: scale not given: the % may be the effect or the level left
HepG2 = test: Cytotoxicity against human HepG2 cells assessed as cell viability after 2 hrs by MTT assay; format: cell-based; settings: HepG2, 2 h
[3] = Negative chronotropic activity in guinea pig spontaneously beating right atria assessed as decrease in atrial rate; format: functional; settings: Cavia porcellus, Cardiac atrium
[4] = Antiarrhythmic activity in guinea pig left atria assessed as increase of 1 Hz-induced alternating current arrhythmia after 60 mins; format: functional, tissue-based; settings: Cavia porcellus, Cardiac atrium, 1 h
[5] = Antiarrhythmic activity in guinea pig left atria assessed as increase of 1 Hz-induced alternating current arrhythmia at 10^-4 M after 60 mins relative to control; format: functional; settings: Cavia porcellus, Cardiac atrium, 1 h
[6] = […] chronotropic activity in guinea pig spontaneously beating right atria assessed as decrease in atrial rate at 10^-4 M relative to control; format: functional, Cavia porcellus, Cardiac atrium; parameters: scale not given: the % may be the effect or the level left
[7] = Negative inotropic activity in guinea pig left atria assessed as decrease of 1 Hz current-induced developed tension at 5 x 10^-7 M relative to control; format: functional, Cavia porcellus, Cardiac atrium; parameters: scale not given: the % may be the effect or the level left
[8] = Negative chronotropic activity in guinea pig spontaneously beating right atria assessed as decrease in atrial rate at 10^-4 M relative to control; format: functional, Cavia porcellus, Cardiac atrium; parameters: scale not given: the % may be the effect or the level left
[9] = Negative inotropic activity in guinea pig left atria assessed as decrease of 1 Hz current-induced developed tension at 10^-4 M relative to control; format: functional, Cavia porcellus, Cardiac atrium; parameters: scale not given: the % may be the effect or the level left
[10] = Negative inotropic activity in guinea pig left atria assessed as decrease of 1 Hz current-induced developed tension at 10^-6 M relative to control; format: functional, Cavia porcellus, Cardiac atrium; parameters: scale not given: the % may be the effect or the level left
[11] = […] chronotropic activity in guinea pig spontaneously beating right atria assessed as decrease in atrial rate at 5 x 10^-6 M relative to control; format: functional, Cavia porcellus, Cardiac atrium; parameters: scale not given: the % may be the effect or the level left
[12] = Negative inotropic activity in guinea pig left atria assessed as decrease of 1 Hz current-induced developed tension at 5 x 10^-5 M relative to control; format: functional, Cavia porcellus, Cardiac atrium; parameters: scale not given: the % may be the effect or the level left
[13] = Negative chronotropic activity in guinea pig spontaneously beating right atria assessed as decrease in atrial rate at 5 x 10^-5 M relative to control; format: functional, Cavia porcellus, Cardiac atrium; parameters: scale not given: the % may be the effect or the level left
[14] = target: T1, Sodium channel protein type 5 subunit alpha (Homo sapiens, UniProt Q14524); test: Blockade of human full-length NaV1.5 expressed in HEK293 cells co-transfected with pCD8-IRES-hbeta1 assessed as 10 Hz of use-dependent-induced channel current at -120 mV holding potential after 36 to 72 hrs by patch clamp assay; format: cell-based
T1 sequence (Q14524 whole entry): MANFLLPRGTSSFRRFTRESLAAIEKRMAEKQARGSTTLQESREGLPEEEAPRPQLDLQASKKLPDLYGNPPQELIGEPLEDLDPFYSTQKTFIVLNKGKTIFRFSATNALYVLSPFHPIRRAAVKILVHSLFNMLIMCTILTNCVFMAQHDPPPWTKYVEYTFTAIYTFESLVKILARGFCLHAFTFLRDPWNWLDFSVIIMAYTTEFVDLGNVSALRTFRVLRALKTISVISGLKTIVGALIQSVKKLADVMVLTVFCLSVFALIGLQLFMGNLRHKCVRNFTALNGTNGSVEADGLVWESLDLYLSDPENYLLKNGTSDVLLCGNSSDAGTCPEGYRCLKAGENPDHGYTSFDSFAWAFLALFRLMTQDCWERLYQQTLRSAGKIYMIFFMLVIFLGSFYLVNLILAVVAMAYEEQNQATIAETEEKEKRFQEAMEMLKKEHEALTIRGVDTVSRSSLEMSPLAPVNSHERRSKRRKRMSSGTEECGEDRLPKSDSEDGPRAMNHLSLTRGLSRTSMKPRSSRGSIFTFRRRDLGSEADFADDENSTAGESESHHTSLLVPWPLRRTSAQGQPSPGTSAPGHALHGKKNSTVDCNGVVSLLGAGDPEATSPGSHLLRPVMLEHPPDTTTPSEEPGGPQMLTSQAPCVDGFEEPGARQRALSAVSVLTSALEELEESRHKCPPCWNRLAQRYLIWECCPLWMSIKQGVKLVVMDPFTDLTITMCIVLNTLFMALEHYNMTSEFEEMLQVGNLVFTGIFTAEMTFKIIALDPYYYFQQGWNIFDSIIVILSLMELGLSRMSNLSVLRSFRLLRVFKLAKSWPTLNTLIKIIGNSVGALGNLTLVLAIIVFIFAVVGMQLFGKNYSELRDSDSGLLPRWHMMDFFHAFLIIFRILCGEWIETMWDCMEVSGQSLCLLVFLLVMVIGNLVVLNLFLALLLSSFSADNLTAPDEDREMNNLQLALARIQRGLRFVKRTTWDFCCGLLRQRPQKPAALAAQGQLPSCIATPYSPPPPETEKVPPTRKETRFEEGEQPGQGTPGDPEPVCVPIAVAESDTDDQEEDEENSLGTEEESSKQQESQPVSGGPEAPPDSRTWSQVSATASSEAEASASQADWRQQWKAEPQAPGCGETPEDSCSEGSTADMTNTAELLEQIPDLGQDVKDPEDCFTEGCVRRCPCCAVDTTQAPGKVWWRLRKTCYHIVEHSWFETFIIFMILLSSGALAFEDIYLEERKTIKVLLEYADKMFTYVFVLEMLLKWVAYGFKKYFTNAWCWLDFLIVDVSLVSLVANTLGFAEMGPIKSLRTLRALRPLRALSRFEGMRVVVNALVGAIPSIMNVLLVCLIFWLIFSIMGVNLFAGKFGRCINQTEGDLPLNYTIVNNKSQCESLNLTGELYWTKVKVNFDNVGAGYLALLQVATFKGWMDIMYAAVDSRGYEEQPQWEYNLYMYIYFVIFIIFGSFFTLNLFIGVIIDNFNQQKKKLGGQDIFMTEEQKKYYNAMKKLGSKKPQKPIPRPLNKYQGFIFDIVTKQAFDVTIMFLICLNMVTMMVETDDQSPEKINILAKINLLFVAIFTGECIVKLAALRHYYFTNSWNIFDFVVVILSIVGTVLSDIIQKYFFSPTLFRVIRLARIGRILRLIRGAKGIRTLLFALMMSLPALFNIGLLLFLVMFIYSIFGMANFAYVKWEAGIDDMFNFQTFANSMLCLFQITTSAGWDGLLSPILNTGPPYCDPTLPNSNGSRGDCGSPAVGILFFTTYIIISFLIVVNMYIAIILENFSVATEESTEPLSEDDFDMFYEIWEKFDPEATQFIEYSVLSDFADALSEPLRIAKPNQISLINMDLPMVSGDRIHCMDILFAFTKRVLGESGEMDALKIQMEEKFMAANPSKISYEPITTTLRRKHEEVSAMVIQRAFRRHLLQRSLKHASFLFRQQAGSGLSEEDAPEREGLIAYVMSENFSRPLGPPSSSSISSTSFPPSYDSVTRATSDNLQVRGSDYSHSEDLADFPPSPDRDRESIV

Caco-2 [15] = test: Apparent permeability from basolateral to apical side in human Caco2 cells after 21 days by UV spectroscopy; format: ADME, cell-based
Mus musculus = test: Neurotoxicity in mouse assessed as deffect in motor coordination at 25 to 50 mg/kg, po after 15 to 45 mins by rotarod test; format: toxicity, organism-based; parameters: route oral; settings: in vivo
Caco-2 [16] = test: Apparent permeability from apical to basolateral side in human Caco2 cells after 21 days by UV spectroscopy; format: ADME, cell-based
[17] = target: T1, Sodium channel protein type 5 subunit alpha; test: Blockade of human full-length NaV1.5 expressed in HEK293 cells co-transfected with pCD8-IRES-hbeta1 assessed as 0.1 Hz of half-maximal tonic-induced channel current at -120 mV holding potential after 36 to 72 hrs by patch clamp assay; format: cell-based
Caco-2 [18] = test: Efflux ratio of permeability from basolateral to apical side to apical to basolateral side in human Caco2 cells after 21 days by UV spectroscopy; format: ADME, cell-based

## CCN(CC)CCNC(=O)c1ccc(N)cc1 [PROCAINAMIDE]
[1]
  Emax at 50 µM: 11%

## Cc1cccc(C)c1OCC(C)N (racemic) [MEXILETINE]
[2]
  EC50: 0.045 µM
Aorta
  Activity: 5%
HepG2
  EC50: 2000 µM
[3]
  EC30: 0.014 µM
[4]
  EC50: 11.6 µM
[5]
  Emax at 100 µM: 64%

## CCN(CC)CCOC(=O)c1ccc(N)cc1 [PROCAINE]
[6]
  Activity: 9%
[7]
  Activity: 92%
[2]
  EC50: 0.014 µM
Aorta
  Activity: 3%

## CCCCc1oc2ccccc2c1C(=O)c1cc(I)c(OCCN(CC)CC)c(I)c1 [AMIODARONE]
[8]
  Activity: 72%
[9]
  Activity: 30%
Aorta
  Activity: 3%
[5]
  Emax at 100 µM: 10%

## CCN(CC)CC(=O)Nc1c(C)cccc1C [LIDOCAINE]
[1]
  Emax at 50 µM: 34%
[2]
  EC50: 0.017 µM
Aorta
  Activity: 14%
[10]
  Activity: 88%
[11]
  Activity: 29%

## C=C[C@H]1CN2CC[C@H]1C[C@@H]2[C@@H](O)c1ccnc2ccc(OC)cc12 [QUINIDINE]
[1]
  Emax at 50 µM: 69%
Aorta
  Activity: 30%
[12]
  Activity: 71%
[3]
  EC30: 3.99 µM
[13]
  Activity: 86%

## Cc1ccc(O)c(C)c1OCC(C)N (racemic)
[14]
  IC50: 30 µM
Caco-2 [15]
  Papp: 142.5 ×10⁻⁶ cm/s
[8]
  Activity: 39%
Mus musculus
  Activity: Non-toxic
[2]
  EC50: 0.098 µM
Aorta
  Activity: 19%
HepG2
  EC50: > 2000 µM
[12]
  Activity: 96%
Caco-2 [16]
  Papp: 300.6 ×10⁻⁶ cm/s
[17]
  IC50: 174 µM
Caco-2 [18]
  Ratio: 2.1
[4]
  EC50: 10.2 µM
[5]
  Emax at 100 µM: 72%
